Active and inactive are the calls of the source. No cut-off for these calls is given here. A value given as a limit tells only on which side of the number the result lay.

Assay [1] has as its target T1, Adrenergic receptor alpha-2 (Rattus norvegicus, UniProt P22086+P19328+P22909).
T1 sequence (P22086 whole entry): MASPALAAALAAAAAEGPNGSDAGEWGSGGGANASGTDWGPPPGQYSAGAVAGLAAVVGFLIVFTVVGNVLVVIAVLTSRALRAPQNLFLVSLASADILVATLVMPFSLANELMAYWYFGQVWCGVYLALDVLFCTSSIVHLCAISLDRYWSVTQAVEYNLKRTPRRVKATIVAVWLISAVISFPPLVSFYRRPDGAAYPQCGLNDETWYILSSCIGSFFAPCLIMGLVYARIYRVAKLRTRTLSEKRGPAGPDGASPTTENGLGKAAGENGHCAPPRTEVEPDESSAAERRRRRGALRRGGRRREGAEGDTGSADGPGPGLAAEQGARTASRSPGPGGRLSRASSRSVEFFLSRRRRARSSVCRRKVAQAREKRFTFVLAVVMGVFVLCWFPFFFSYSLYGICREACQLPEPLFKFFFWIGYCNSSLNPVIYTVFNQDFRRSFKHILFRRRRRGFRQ
T1 sequence (P19328 whole entry): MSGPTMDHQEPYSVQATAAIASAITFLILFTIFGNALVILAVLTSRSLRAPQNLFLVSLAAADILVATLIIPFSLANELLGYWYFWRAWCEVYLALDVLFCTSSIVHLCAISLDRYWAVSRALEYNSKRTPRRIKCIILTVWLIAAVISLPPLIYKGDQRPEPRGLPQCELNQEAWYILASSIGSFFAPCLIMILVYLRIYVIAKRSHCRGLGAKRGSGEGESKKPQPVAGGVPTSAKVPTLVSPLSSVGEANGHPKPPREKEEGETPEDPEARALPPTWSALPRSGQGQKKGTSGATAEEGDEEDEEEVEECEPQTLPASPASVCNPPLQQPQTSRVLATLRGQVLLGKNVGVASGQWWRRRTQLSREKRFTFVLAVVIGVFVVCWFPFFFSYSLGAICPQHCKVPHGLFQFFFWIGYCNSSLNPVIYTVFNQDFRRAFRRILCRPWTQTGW
T1 sequence (P22909 whole entry): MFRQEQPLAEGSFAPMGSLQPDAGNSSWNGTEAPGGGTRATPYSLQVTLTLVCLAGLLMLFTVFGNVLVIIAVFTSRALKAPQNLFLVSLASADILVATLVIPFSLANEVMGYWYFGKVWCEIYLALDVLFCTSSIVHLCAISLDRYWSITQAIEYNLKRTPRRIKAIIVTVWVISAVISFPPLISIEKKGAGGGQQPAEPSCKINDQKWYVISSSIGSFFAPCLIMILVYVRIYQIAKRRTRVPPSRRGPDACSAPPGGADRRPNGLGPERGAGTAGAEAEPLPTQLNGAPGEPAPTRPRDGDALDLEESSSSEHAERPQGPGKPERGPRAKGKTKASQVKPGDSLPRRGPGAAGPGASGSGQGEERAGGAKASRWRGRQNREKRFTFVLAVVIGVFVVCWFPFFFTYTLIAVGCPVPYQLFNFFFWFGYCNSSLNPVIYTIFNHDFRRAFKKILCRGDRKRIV
Nature of the assay: Displacement [3H]yohimbine from alpha 2 adrenergic receptor in rat brain cortex homogenates after 30 mins by liquid scintillation counting. The class given is tissue-based.

The test system of assay [2] is PC-3. In words: Induction of apoptosis human PC3 cells assessed as externalization of phosphatidylserine on the outer layer of plasma membrane at 15 uM after 24 to 48 hrs using Annexin-V-FITC staining by flow cytometry. The class given is functional, cell-based.
Assay [3] concerns PC-3. In words: Cell cycle arrest in human PC3 cells assessed as accumulation at G2 phase at 15 uM after 24 hrs using propidium iodide staining by flow cytometry (reference value: 18.19 %). It is filed as functional.
Assay [4] deals with PC-3. Nature of the assay: Induction of apoptosis in human PC3 cells at 15 uM after 24 hrs using propidium iodide staining by flow cytometry (reference value: 1.27 %). It is filed as functional.
In assay [5] the test system is PC-3. In words: Cell cycle arrest in human PC3 cells assessed as accumulation at G2 phase at 15 uM after 72 hrs using propidium iodide staining by flow cytometry (reference value: 20.18 %). It is filed as functional.
The subject of assay [6] is PC-3. In words: Induction of apoptosis in human PC3 cells at 15 uM after 72 hrs using propidium iodide staining by flow cytometry (reference value: 1.79 %). It is filed as functional.
For assay [7], the system named is PC-3. In words: Cell cycle arrest in human PC3 cells assessed as accumulation at G1 phase at 15 uM after 72 hrs using propidium iodide staining by flow cytometry (reference value: 42.19 %). It is filed as functional.
For assay [8], the system named is PC-3. In words: Cell cycle arrest in human PC3 cells assessed as accumulation at S phase at 15 uM after 48 hrs using propidium iodide staining by flow cytometry (reference value: 38.16 %). It is filed as functional.
In assay [9] the test system is PC-3. In words: Cell cycle arrest in human PC3 cells assessed as accumulation at G1 phase at 15 uM after 48 hrs using propidium iodide staining by flow cytometry (reference value: 54.14 %). The class given is functional.
For assay [10], the system named is PC-3. In words: Cell cycle arrest in human PC3 cells assessed as accumulation at S phase at 15 uM after 72 hrs using propidium iodide staining by flow cytometry (reference value: 37.73 %). It is filed as functional.
The subject of assay [11] is PC-3. In words: Cell cycle arrest in human PC3 cells assessed as accumulation at G1 phase at 15 uM after 24 hrs using propidium iodide staining by flow cytometry (reference value: 46.97 %). The class given is functional.
The test system of assay [12] is PC-3. In words: Cell cycle arrest in human PC3 cells assessed as accumulation at S phase at 15 uM after 24 hrs using propidium iodide staining by flow cytometry (reference value: 34.84 %). The class given is functional.
The test system of assay [13] is PC-3. Nature of the assay: Induction of apoptosis in human PC3 cells at 15 uM after 48 hrs using propidium iodide staining by flow cytometry (reference value: 0.84 %). The class given is functional.
Assay [14] deals with PC-3. In words: Cell cycle arrest in human PC3 cells assessed as accumulation at G2 phase at 15 uM after 48 hrs using propidium iodide staining by flow cytometry (reference value: 13.36 %). The class given is functional.

With `O=C1C2C3C=CC(C3)C2C(=O)N1OCCCN1CCN(c2cccc3ccccc23)CC1` (stereo not drawn), the Ki in assay [1] came out at 0.189 µM.

For the compound `N#C/N=C(\NCCCN1CCN(c2cccc3ccccc23)CC1)c1ccccn1`, the Ki in assay [1] is above 10 µM.

Regarding `O=c1c2ccccc2nnn1OCCCN1CCN(c2cccc3ccccc23)CC1`, the Ki in assay [1] is above 10 µM.

In [1], `O=c1c2ccccc2nnn1OCCN1CCN(c2cccc3ccccc23)CC1` gave a Ki above 10 µM.

With `O=c1c2ccccc2nnn1CCCN1CCN(c2cccc3ccccc23)CC1`, in the assay on PC-3 [2], the outcome was Active. Also, the Activity in the assay with PC-3 [3] was 27.3%; with PC-3 [4] it was 1.71%; in the assay on PC-3 [5] it was 28.65%; with PC-3 [6], 2.25%; in the assay with PC-3 [7], 43.11%; with PC-3 [8], 33.58%. For the same compound, the Activity was determined as 44.13% in the assay on PC-3 [9]; 28.24% in the assay on PC-3 [10]; 37.55% in the assay with PC-3 [11]; 35.15% with PC-3 [12]; 2.12% with PC-3 [13]; 22.29% in the assay on PC-3 [14]. In addition, the inhibitory constant (Ki) in assay [1] is 3.6 µM.

As to `O=C1C2C3C=CC(C3)C2C(=O)N1OCCN1CCN(c2cccc3ccccc23)CC1` (stereo not drawn), in assay [1], the inhibition constant Ki came out at 1.2 µM.

Take `O=c1c2ccccc2nnn1CCN1CCN(c2cccc3ccccc23)CC1`: the result in the assay on PC-3 [2] was Active. Further, the Activity came out at 24.17% in the assay on PC-3 [3]; 2.17% in the assay on PC-3 [4]; 24.19% in the assay on PC-3 [5]; 2.17% in the assay with PC-3 [6]; 45.86% in the assay on PC-3 [7]; 34.56% in the assay with PC-3 [8]. The Activity was 41.36% in the assay with PC-3 [9]; 29.95% with PC-3 [10]; 38.38% in the assay with PC-3 [11]; 37.45% in the assay with PC-3 [12]; 2.79% in the assay on PC-3 [13]; 24.08% with PC-3 [14]. For the same compound, the inhibition constant (Ki) in assay [1] stood at 1.88 µM.

For the origin of these results see ChEMBL document CHEMBL1781926, “Synthesis of 1-naphtylpiperazine derivatives as serotoninergic ligands and their evaluation as antiproliferative agents” (Eur J Med Chem, 2011).
